From patent publication US8946438B2, “Benzamides, production thereof, and use thereof as medicaments” (Boehringer Ingelheim International GmbH, priority 2008, dated 2015) come the findings set out here.

The structures appear in SMILES notation.

p38 MAP-kinase, sequence (Q16539 whole entry): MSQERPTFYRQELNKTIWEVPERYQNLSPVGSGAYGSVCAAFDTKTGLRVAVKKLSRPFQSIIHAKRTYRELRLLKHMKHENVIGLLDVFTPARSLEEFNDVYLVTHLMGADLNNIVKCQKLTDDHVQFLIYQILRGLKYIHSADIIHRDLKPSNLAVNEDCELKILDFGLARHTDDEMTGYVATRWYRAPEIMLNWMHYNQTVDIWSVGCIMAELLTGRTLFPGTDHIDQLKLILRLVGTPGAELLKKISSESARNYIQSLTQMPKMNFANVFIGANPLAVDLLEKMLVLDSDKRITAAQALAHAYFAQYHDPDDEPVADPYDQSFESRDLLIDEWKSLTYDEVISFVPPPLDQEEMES

The assay addresses p38 MAP-kinase (Homo sapiens, UniProt Q16539). As to the kind of experiment: Enzymatic assay: inhibition of p38 MAP-kinase (phosphorylation of GST-tagged ATF2, chemoluminescence bead readout). The note with it: inhibitor 1 μM; activated p38 MAP-kinase 1 nM; 4 h preincubation; ATP 100 μM; ATF2 10 nM; read-out: % inhibitory effect at 1 μM. Format: biochemical. Put shortly: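 Activated human p38 MAP-kinase (1 nM) preincubated 4 h at ambient temperature with compound at 1 μM in HEPES pH 7, MgCl2, DTT, Tween20. Then reacted 1 h with GST-ATF2 (10 nM) and ATP (100 μM). Phospho-ATF2 read by bead chemoluminescence at 520-620 nm, given as % inhibition at 1 μM versus kinase-free background.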
Regarding `COc1c(NC(=O)c2ccc(C)c(Oc3ccncc3)c2)cc(C(C)(C)C)cc1NS(C)(=O)=O` [Example 2, N-(5-tert-butyl-3-methanesulphonylamino-2-methoxy-phenyl)-4-methyl-3-(pyridin-4-yloxy)-benzamide], the inhibition at 1 µM was 97.7%.
For the molecule `COc1c(NC(=O)c2cc(C)cc(Oc3ccnc(CN4CCNCC4)n3)c2)cc(C(C)(C)C)cc1NS(C)(=O)=O` [5(22), N-(5-tert-butyl-3-methanesulphonylamino-2-methoxy-phenyl)-3-methyl-5-(2-piperazin-1-ylmethyl-pyrimidin-4-yloxy)-benzamide], the inhibition at 1 µM amounted to 85.7%.
As for `COc1c(NC(=O)c2ccc(C)c(Oc3cc(CC4CCCN(C)CC4)ncn3)c2)cc(C(C)(C)C)cc1NS(C)(=O)=O` (stereo not drawn) [12(7), N-(5-tert-butyl-3-methanesulphonylamino-2-methoxy-phenyl)-4-methyl-3-[6-(1-methyl-azepan-4-ylmethyl)-pyrimidin-4-yloxy]-benzamide], the inhibition at 1 µM is 99.8%.
The figure for `COc1c(NC(=O)c2ccc(C)c(Oc3cc(NC4CCNC4)ncn3)c2)cc(C(C)(C)C)cc1NS(C)(=O)=O` (stereo not drawn) [5(26), N-(5-tert-butyl-3-methanesulphonylamino-2-methoxy-phenyl)-4-methyl-3-[6-(pyrrolidin-3-ylamino)-pyrimidin-4-yloxy]-benzamide] is 97.6%; for `COc1c(NC(=O)c2ccc(C)c(Oc3ccnc(CN4CC[C@@H](O)C4)c3)c2)cc(C(C)(C)C)cc1NS(C)(=O)=O` [8(12), (R)-N-(5-tert-butyl-3-methanesulphonylamino-2-methoxy-phenyl)-3-[2-(3-hydroxy-pyrrolidin-1-ylmethyl)-pyridin-4-yloxy]-4-methyl-benzamide] it is 97%.
Then `COc1c(NC(=O)c2ccc(C)c(Oc3ccnc(N4CC[C@@H](N(C)C)C4)n3)c2)cc(C(C)(C)C)cc1NS(C)(=O)=O` [4(6), (R)-N-(5-tert-butyl-3-methanesulphonylamino-2-methoxy-phenyl)-3-[2-(3-dimethylamino-pyrrolidin-1-yl)-pyrimidin-4-yloxy]-4-methyl-benzamide], with 98%.
Then `CCc1ccc(C(=O)Nc2cc(C(C)(C)C)cc(NS(C)(=O)=O)c2OC)cc1Oc1ccnc(N2CCNCC2)n1` [5(15), N-(5-tert-butyl-3-methanesulphonylamino-2-methoxy-phenyl)-4-ethyl-5-(2-piperazin-1-yl-pyrimidin-4-yloxy)-benzamide], with 96%; and `COc1c(NC(=O)c2ccc(C)c(Oc3ccnc(CC4CCNCC4)c3)c2)cc(C(C)(C)C)cc1NS(C)(=O)=O` [5(20), N-(5-tert-butyl-3-methanesulphonylamino-2-methoxy-phenyl)-4-methyl-3-(2-piperidin-4-ylmethyl-pyridin-4-yloxy)-benzamide], with 99.5%; and `COc1c(NC(=O)c2ccc(C)c(Oc3ccnc(CN[C@H]4CCOC4)c3)c2)cc(C(C)(C)C)cc1NS(C)(=O)=O` [8(11), (S)-N-(5-tert-butyl-3-methanesulphonylamino-2-methoxy-phenyl)-4-methyl-3-{2-[(tetrahydro-furan-3-ylamino)-methyl]-pyridin-4-yloxy}-benzamide], with 96.7%.
Consider `COc1c(NC(=O)c2ccc(Cl)c(Oc3ccnc(CN4CCNCC4)n3)c2)cc(C(C)(C)C)cc1NS(C)(=O)=O` [5(35), N-(5-tert-butyl-3-methanesulphonylamino-2-methoxy-phenyl)-4-chloro-3-(2-piperazin-1-ylmethyl-pyrimidin-4-yloxy)-benzamide], for which the inhibition at 1 µM was 98.3%.
Then `CNCc1cc(Oc2cc(C(=O)Nc3cc(C(C)(C)C)cc(NS(C)(=O)=O)c3OC)ccc2C)ncn1` [8(1), N-(5-tert-butyl-3-methanesulphonylamino-2-methoxy-phenyl)-4-methyl-3-(6-methylaminomethyl-pyrimidin-4-yloxy)-benzamide], with 55.9%; and `COc1c(CSC)cc(C(C)(C)C)cc1NC(=O)c1ccc(C)c(Oc2ccnc(CC3CCNCC3)c2)c1` [5(40), N-(5-tert-butyl-2-methoxy-3-methylsulphanylmethyl-phenyl)-4-methyl-3-(2-piperidin-4-ylmethyl-pyridin-4-yloxy)-benzamide], with 99.5%; and `COc1c(CO)cc(C(C)(C)C)cc1NC(=O)c1ccc(C)c(Oc2ccnc(CN3CCN(C)CC3)n2)c1` [Example 13, N-(5-tert-butyl-3-hydroxymethyl-2-methoxy-phenyl)-4-methyl-3-[2-(4-methyl-piperazin-1-ylmethyl)-pyrimidin-4-yloxy]-benzamide], with 98.2%.
Turning to `COc1c(NC(=O)CC(C)C)cc(C(C)(C)C)cc1NC(=O)c1ccc(C)c(Oc2ccnc(CC3CCNCC3)c2)c1` [11(4), N-[5-tert-butyl-2-methoxy-3-(3-methyl-butyrylamino)-phenyl]-4-methyl-3-(2-piperidin-4-ylmethyl-pyridin-4-yloxy)-benzamide], the inhibition at 1 µM was 95.1%.
The figure for `COc1c(NC(=O)c2ccc(C)c(Oc3ccnc(N4CC[C@H](N(C)C)C4)n3)c2)cc(C(C)(C)C)cc1NS(C)(=O)=O` [4(7), (S)-N-(5-tert-butyl-3-methanesulphonylamino-2-methoxy-phenyl)-3-[2-(3-dimethylamino-pyrrolidin-1-yl)-pyrimidin-4-yloxy]-4-methyl-benzamide] is 98.6%; for `COc1c(NC(=O)c2cc(C)cc(Oc3ccnc(C(=O)N4CCNCC4)n3)c2)cc(C(C)(C)C)cc1NS(C)(=O)=O` [5(21), N-(5-tert-butyl-3-methanesulphonylamino-2-methoxy-phenyl)-3-methyl-5-[2-(piperazine-1-carbonyl)-pyrimidin-4-yloxy]-benzamide x trifluoroacetic acid] it is 88.9%.
The figure for `COc1c(NC(=O)c2ccc(C)c(Oc3ccnc(CN4CC[C@H](N(C)C)C4)n3)c2)cc(C(C)(C)C)cc1NS(C)(=O)=O` [8(21), (S)-N-(5-tert-butyl-3-methanesulphonylamino-2-methoxy-phenyl)-3-[2-(3-dimethylamino-pyrrolidin-1-ylmethyl)-pyrimidin-4-yloxy]-4-methyl-benzamide] is 98.5%; for `COc1c(NC(=O)c2cc(Cl)c(C)c(Oc3ccnc(N4CCNCC4)n3)c2)cc(C(C)(C)C)cc1NS(C)(=O)=O` [5(12), N-(5-tert-butyl-3-methanesulphonylamino-2-methoxy-phenyl)-3-chloro-4-methyl-5-(2-piperazin-1-yl-pyrimidin-4-yloxy)-benzamide] it is 98.6%.
Consider `COc1c(NC(=O)c2ccc(C)c(Oc3ccnc(N(C)C4CCNCC4)n3)c2)cc(C(C)(C)C)cc1NS(C)(=O)=O` [5(14), N-(5-tert-butyl-3-methanesulphonylamino-2-methoxy-phenyl)-4-methyl-3-[2-(N-methyl-N-piperidin-4-yl-amino)-pyrimidin-4-yloxy]-benzamide], for which the inhibition at 1 µM came out at 98.5%.
Turning to `COc1c(NC(=O)c2ccc(C)c(Oc3cc(CNCCN(C)C)ncn3)c2)cc(C(C)(C)C)cc1NS(C)(=O)=O` [8(29), N-(5-tert-butyl-3-methanesulphonylamino-2-methoxy-phenyl)-3-{6-[(2-dimethylamino-ethylamino)-methyl]-pyrimidin-4-yloxy}-4-methyl-benzamide], the inhibition at 1 µM worked out at 89%.
Then `COc1c(NC(=O)c2ccc(C)c(Oc3cc(N(C)C4CCN(C)CC4)ncn3)c2)cc(C(C)(C)C)cc1NS(C)(=O)=O` [4(17), N-(5-tert-butyl-3-methanesulphonylamino-2-methoxy-phenyl)-4-methyl-3-{6-[methyl-(1-methyl-piperidin-4-yl)-amino]-pyrimidin-4-yloxy}-benzamide], with 98.7%.
Then `COc1c(NC(=O)c2ccc(C)c(Oc3ccnc(CNCCN(C)C)c3)c2)cc(C(C)(C)C)cc1NS(C)(=O)=O` [8(27), N-(5-tert-butyl-3-methanesulphonylamino-2-methoxy-phenyl)-3-{2-[(2-dimethylamino-ethylamino)-methyl]-pyridin-4-yloxy}-4-methyl-benzamide], with 98.4%; and `COc1c(NC(=O)c2ccc(C)c(Oc3cc(N4CCC(N(C)C)CC4)ncn3)c2)cc(C(C)(C)C)cc1NS(C)(=O)=O` [4(11), N-(5-tert-butyl-3-methanesulphonylamino-2-methoxy-phenyl)-3-[6-(4-dimethylamino-piperidin-1-yl)-pyrimidin-4-yloxy]-4-methyl-benzamide], with 99.1%; and `COc1c(NC(=O)c2ccc(Cl)c(Oc3ccnc(CN(C)CCN(C)C)c3)c2)cc(C(C)(C)C)cc1NS(C)(=O)=O` [8(33), N-(5-tert-butyl-3-methanesulphonylamino-2-methoxy-phenyl)-4-chloro-3-(2-{[(2-dimethylamino-ethyl)-methyl-amino]-methyl}-pyridin-4-yloxy)-benzamide], with 97.1%.
Then `COc1c(NC(=O)c2ccc(C)c(Oc3ccnc(CN4CCN(C)CC4)n3)c2)cc(C(C)(C)C)cc1NS(C)(=O)=O` [8(6), N-(5-tert-butyl-3-methanesulphonylamino-2-methoxy-phenyl)-4-methyl-3-[2-(4-methyl-piperazin-1-ylmethyl)-pyrimidin-4-yloxy]-benzamide], with 98.7%.
Take `COc1c(NC(=O)c2ccc(C)c(Oc3cc(NCCN(C)C)ncn3)c2)cc(C(C)(C)C)cc1NS(C)(=O)=O` [4(2), N-(5-tert-butyl-3-methanesulphonylamino-2-methoxy-phenyl)-3-[6-(2-dimethylamino-ethylamino)-pyrimidin-4-yloxy]-4-methyl-benzamide]: the inhibition at 1 µM turned out to be 94.8%.
For `COc1c(NC(=O)c2ccc(C)c(Oc3ccnc(CN4CCCNCC4)c3)c2)cc(C(C)(C)C)cc1S(C)(=O)=O` [5(39), N-(5-tert-butyl-3-methanesulphonyl-2-methoxy-phenyl)-3-(2-[1,4]diazepan-1-ylmethyl-pyridin-4-yloxy)-4-methyl-benzamide], the inhibition at 1 µM turned out to be 99.4%.
